From patent US20250230193A1, “CYCLIC COMPOUND HAVING SELECTIVE KRAS INHIBITORY EFFECT ON HRAS AND NRAS” (CHUGAI SEIYAKU KABUSHIKI KAISHA, priority 2022, published 2025)

What was measured:
[1] = target: GDP-bound HRAS wild-type protein (Homo sapiens, UniProt P01112); test: Binding to HRAS by surface plasmon resonance (SPR), Single Cycle Kinetics; details: KD ratio HRAS/KRAS, SPR
[2] = target: GDP-bound NRAS wild-type protein (Homo sapiens, UniProt P01111); test: Binding to NRAS by surface plasmon resonance (SPR), Single Cycle Kinetics; details: KD ratio NRAS/KRAS, SPR
GDP-bound NRAS wild-type protein, sequence (P01111 whole entry): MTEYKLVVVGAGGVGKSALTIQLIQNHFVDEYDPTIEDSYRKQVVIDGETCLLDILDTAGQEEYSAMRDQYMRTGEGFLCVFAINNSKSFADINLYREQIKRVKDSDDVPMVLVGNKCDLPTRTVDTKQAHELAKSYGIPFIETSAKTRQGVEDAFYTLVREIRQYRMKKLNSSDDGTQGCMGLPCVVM

GDP-bound HRAS wild-type protein, sequence (P01112 whole entry): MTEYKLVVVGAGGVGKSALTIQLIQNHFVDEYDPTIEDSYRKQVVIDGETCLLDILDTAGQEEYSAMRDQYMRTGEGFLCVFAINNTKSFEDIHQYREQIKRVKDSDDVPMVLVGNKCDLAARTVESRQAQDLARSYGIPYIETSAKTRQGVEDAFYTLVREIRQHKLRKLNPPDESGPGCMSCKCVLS

CCO[C@@H]1C[C@H]2C(=O)NC3(CCC3)C(=O)N(C)[C@@H](C3CCCC3)C(=O)N(C)[C@H](C(=O)N3CCOCC3)CC(=O)N(C)[C@@H](CC3CCC3)C(=O)N[C@@H]([C@@H](C)CC)C(=O)N(C)CC(=O)N(C)[C@H]3CCCCCN(C3=O)[C@@H](Cc3ccc(C(F)(F)F)cc3)C(=O)N(C)CC(=O)N[C@@H](CCc3cc(F)c(C(F)(F)F)c(F)c3)C(=O)N2C1 [PP0683]
HRAS/KRAS (ratio of KD value with respect to GDP-bound HRAS wild-type protein to KD value with respect to KRAS) [1]: B (a compound having 3 or more and less than 10 is denoted as B) | NRAS/KRAS (ratio of KD value with respect to GDP-bound NRAS wild-type protein to KD value with respect to KRAS) [2]: B (a compound having 3 or more and less than 10 is denoted as B)

CCO[C@@H]1C[C@H]2C(=O)NC3(CCC3)C(=O)N(C)[C@@H](C3CCCC3)C(=O)N(C)[C@H](C(=O)N3CCOCC3)CC(=O)N(C)[C@@H](CC(C)(C)C)C(=O)N[C@@H]([C@@H](C)CC)C(=O)N(C)CC(=O)N(C)[C@H]3CCCCCN(C3=O)[C@@H](Cc3ccc(C(F)(F)F)cc3)C(=O)N(C)CC(=O)N[C@@H](CCc3cc(F)c(C(F)(F)F)c(F)c3)C(=O)N2C1 [PP0684]
HRAS/KRAS (ratio of KD value with respect to GDP-bound HRAS wild-type protein to KD value with respect to KRAS) [1]: B (a compound having 3 or more and less than 10 is denoted as B) | NRAS/KRAS (ratio of KD value with respect to GDP-bound NRAS wild-type protein to KD value with respect to KRAS) [2]: B (a compound having 3 or more and less than 10 is denoted as B)

CCO[C@@H]1C[C@H]2C(=O)NC3(CCC3)C(=O)N(C)[C@@H](C3CCCC3)C(=O)N(C)[C@H](C(=O)N3CCOCC3)CC(=O)N(C)[C@@H](CC3CCCC3)C(=O)N[C@@H]([C@@H](C)CC)C(=O)N(C)CC(=O)N(C)[C@H]3CCCCCN(C3=O)[C@@H](Cc3ccc(C(F)(F)F)cc3)C(=O)N(C)CC(=O)N[C@@H](CCc3cc(F)c(C(F)(F)F)c(F)c3)C(=O)N2C1 [PP0685]
HRAS/KRAS (ratio of KD value with respect to GDP-bound HRAS wild-type protein to KD value with respect to KRAS) [1]: B (a compound having 3 or more and less than 10 is denoted as B) | NRAS/KRAS (ratio of KD value with respect to GDP-bound NRAS wild-type protein to KD value with respect to KRAS) [2]: B (a compound having 3 or more and less than 10 is denoted as B)

CCO[C@@H]1C[C@H]2C(=O)NC3(CCC3)C(=O)N(C)[C@@H](C3CCCC3)C(=O)N(C)[C@H](C(=O)N3CCOCC3)CC(=O)N(C)[C@@H](CC3CCCCC3)C(=O)N[C@@H]([C@@H](C)CC)C(=O)N(C)CC(=O)N(C)[C@H]3CCCCCN(C3=O)[C@@H](Cc3ccc(C(F)(F)F)cc3)C(=O)N(C)CC(=O)N[C@@H](CCc3cc(F)c(C(F)(F)F)c(F)c3)C(=O)N2C1 [PP0686]
HRAS/KRAS (ratio of KD value with respect to GDP-bound HRAS wild-type protein to KD value with respect to KRAS) [1]: B (a compound having 3 or more and less than 10 is denoted as B) | NRAS/KRAS (ratio of KD value with respect to GDP-bound NRAS wild-type protein to KD value with respect to KRAS) [2]: B (a compound having 3 or more and less than 10 is denoted as B)

CCO[C@@H]1C[C@H]2C(=O)NC3(CCC3)C(=O)N(C)[C@@H](C3CCCC3)C(=O)N(C)[C@H](C(=O)N3CCOCC3)CC(=O)N(C)[C@@H](Cc3ccccc3)C(=O)N[C@@H]([C@@H](C)CC)C(=O)N(C)CC(=O)N(C)[C@H]3CCCCCN(C3=O)[C@@H](Cc3ccc(C(F)(F)F)cc3)C(=O)N(C)CC(=O)N[C@@H](CCc3cc(F)c(C(F)(F)F)c(F)c3)C(=O)N2C1 [PP0687]
HRAS/KRAS (ratio of KD value with respect to GDP-bound HRAS wild-type protein to KD value with respect to KRAS) [1]: B (a compound having 3 or more and less than 10 is denoted as B) | NRAS/KRAS (ratio of KD value with respect to GDP-bound NRAS wild-type protein to KD value with respect to KRAS) [2]: B (a compound having 3 or more and less than 10 is denoted as B)

CCO[C@@H]1C[C@H]2C(=O)NC3(CCC3)C(=O)N(C)[C@@H](C3CCCC3)C(=O)N(C)[C@H](C(=O)N3CCOCC3)CC(=O)N(C)[C@@H](COC)C(=O)N[C@@H]([C@@H](C)CC)C(=O)N(C)CC(=O)N(C)[C@H]3CCCCCN(C3=O)[C@@H](Cc3ccc(C(F)(F)F)cc3)C(=O)N(C)CC(=O)N[C@@H](CCc3cc(F)c(C(F)(F)F)c(F)c3)C(=O)N2C1 [PP0689]
HRAS/KRAS (ratio of KD value with respect to GDP-bound HRAS wild-type protein to KD value with respect to KRAS) [1]: B (a compound having 3 or more and less than 10 is denoted as B) | NRAS/KRAS (ratio of KD value with respect to GDP-bound NRAS wild-type protein to KD value with respect to KRAS) [2]: B (a compound having 3 or more and less than 10 is denoted as B)

CCO[C@@H]1C[C@H]2C(=O)NC3(CCC3)C(=O)N(C)[C@@H](C3CCCC3)C(=O)N(C)[C@H](C(=O)N3CCOCC3)CC(=O)N(C)[C@@H](CCOC)C(=O)N[C@@H]([C@@H](C)CC)C(=O)N(C)CC(=O)N(C)[C@H]3CCCCCN(C3=O)[C@@H](Cc3ccc(C(F)(F)F)cc3)C(=O)N(C)CC(=O)N[C@@H](CCc3cc(F)c(C(F)(F)F)c(F)c3)C(=O)N2C1 [PP0690]
HRAS/KRAS (ratio of KD value with respect to GDP-bound HRAS wild-type protein to KD value with respect to KRAS) [1]: B (a compound having 3 or more and less than 10 is denoted as B) | NRAS/KRAS (ratio of KD value with respect to GDP-bound NRAS wild-type protein to KD value with respect to KRAS) [2]: B (a compound having 3 or more and less than 10 is denoted as B)

CCO[C@@H]1C[C@H]2C(=O)NC3(CCC3)C(=O)N(C)[C@@H](C3CCCC3)C(=O)N(C)[C@H](C(=O)N(C)C)CC(=O)N(C)[C@@H](CC)C(=O)N[C@@H]([C@@H](C)CC)C(=O)N(C)CC(=O)N(C)[C@H]3CCCCN(C3=O)[C@@H](Cc3ccc(C(F)(F)F)cc3)C(=O)N(C)CC(=O)N[C@@H](CCc3cc(F)c(C(F)(F)F)c(F)c3)C(=O)N2C1 [PP0693]
HRAS/KRAS (ratio of KD value with respect to GDP-bound HRAS wild-type protein to KD value with respect to KRAS) [1]: C (A compound having a KD ratio of 0.1 or more and less than 3 is denoted as C) | NRAS/KRAS (ratio of KD value with respect to GDP-bound NRAS wild-type protein to KD value with respect to KRAS) [2]: C (A compound having a KD ratio of 0.1 or more and less than 3 is denoted as C)

CCC[C@H]1C(=O)N[C@@H]([C@@H](C)CC)C(=O)N(C)CC(=O)N(C)[C@H]2CCCCN(C2=O)[C@@H](Cc2ccc(C(F)(F)F)cc2)C(=O)N(C)CC(=O)N[C@@H](CCc2cc(F)c(C(F)(F)F)c(F)c2)C(=O)N2C[C@H](OCC)C[C@H]2C(=O)NC2(CCC2)C(=O)N(C)[C@@H](C2CCCC2)C(=O)N(C)[C@H](C(=O)N(C)C)CC(=O)N1C [PP0694]
HRAS/KRAS (ratio of KD value with respect to GDP-bound HRAS wild-type protein to KD value with respect to KRAS) [1]: C (A compound having a KD ratio of 0.1 or more and less than 3 is denoted as C) | NRAS/KRAS (ratio of KD value with respect to GDP-bound NRAS wild-type protein to KD value with respect to KRAS) [2]: C (A compound having a KD ratio of 0.1 or more and less than 3 is denoted as C)

C=CC[C@H]1C(=O)N[C@@H]([C@@H](C)CC)C(=O)N(C)CC(=O)N(C)[C@H]2CCCCN(C2=O)[C@@H](Cc2ccc(C(F)(F)F)cc2)C(=O)N(C)CC(=O)N[C@@H](CCc2cc(F)c(C(F)(F)F)c(F)c2)C(=O)N2C[C@H](OCC)C[C@H]2C(=O)NC2(CCC2)C(=O)N(C)[C@@H](C2CCCC2)C(=O)N(C)[C@H](C(=O)N(C)C)CC(=O)N1C [PP0695]
HRAS/KRAS (ratio of KD value with respect to GDP-bound HRAS wild-type protein to KD value with respect to KRAS) [1]: C (A compound having a KD ratio of 0.1 or more and less than 3 is denoted as C) | NRAS/KRAS (ratio of KD value with respect to GDP-bound NRAS wild-type protein to KD value with respect to KRAS) [2]: C (A compound having a KD ratio of 0.1 or more and less than 3 is denoted as C)

C#CC[C@H]1C(=O)N[C@@H]([C@@H](C)CC)C(=O)N(C)CC(=O)N(C)[C@H]2CCCCN(C2=O)[C@@H](Cc2ccc(C(F)(F)F)cc2)C(=O)N(C)CC(=O)N[C@@H](CCc2cc(F)c(C(F)(F)F)c(F)c2)C(=O)N2C[C@H](OCC)C[C@H]2C(=O)NC2(CCC2)C(=O)N(C)[C@@H](C2CCCC2)C(=O)N(C)[C@H](C(=O)N(C)C)CC(=O)N1C [PP0696]
HRAS/KRAS (ratio of KD value with respect to GDP-bound HRAS wild-type protein to KD value with respect to KRAS) [1]: B (a compound having 3 or more and less than 10 is denoted as B) | NRAS/KRAS (ratio of KD value with respect to GDP-bound NRAS wild-type protein to KD value with respect to KRAS) [2]: B (a compound having 3 or more and less than 10 is denoted as B)

CCO[C@@H]1C[C@H]2C(=O)NC3(CCC3)C(=O)N(C)[C@@H](C3CCCC3)C(=O)N(C)[C@H](C(=O)N(C)C)CC(=O)N(C)[C@@H](CC3CC3)C(=O)N[C@@H]([C@@H](C)CC)C(=O)N(C)CC(=O)N(C)[C@H]3CCCCN(C3=O)[C@@H](Cc3ccc(C(F)(F)F)cc3)C(=O)N(C)CC(=O)N[C@@H](CCc3cc(F)c(C(F)(F)F)c(F)c3)C(=O)N2C1 [PP0697]
HRAS/KRAS (ratio of KD value with respect to GDP-bound HRAS wild-type protein to KD value with respect to KRAS) [1]: C (A compound having a KD ratio of 0.1 or more and less than 3 is denoted as C) | NRAS/KRAS (ratio of KD value with respect to GDP-bound NRAS wild-type protein to KD value with respect to KRAS) [2]: C (A compound having a KD ratio of 0.1 or more and less than 3 is denoted as C)

CCO[C@@H]1C[C@H]2C(=O)NC3(CCC3)C(=O)N(C)[C@@H](C3CCCC3)C(=O)N(C)[C@H](C(=O)N(C)C)CC(=O)N(C)[C@@H](CC3CCC3)C(=O)N[C@@H]([C@@H](C)CC)C(=O)N(C)CC(=O)N(C)[C@H]3CCCCN(C3=O)[C@@H](Cc3ccc(C(F)(F)F)cc3)C(=O)N(C)CC(=O)N[C@@H](CCc3cc(F)c(C(F)(F)F)c(F)c3)C(=O)N2C1 [PP0698]
HRAS/KRAS (ratio of KD value with respect to GDP-bound HRAS wild-type protein to KD value with respect to KRAS) [1]: C (A compound having a KD ratio of 0.1 or more and less than 3 is denoted as C) | NRAS/KRAS (ratio of KD value with respect to GDP-bound NRAS wild-type protein to KD value with respect to KRAS) [2]: C (A compound having a KD ratio of 0.1 or more and less than 3 is denoted as C)

CCO[C@@H]1C[C@H]2C(=O)NC3(CCC3)C(=O)N(C)[C@@H](C3CCCC3)C(=O)N(C)[C@H](C(=O)N(C)C)CC(=O)N(C)[C@@H](CC(C)(C)C)C(=O)N[C@@H]([C@@H](C)CC)C(=O)N(C)CC(=O)N(C)[C@H]3CCCCN(C3=O)[C@@H](Cc3ccc(C(F)(F)F)cc3)C(=O)N(C)CC(=O)N[C@@H](CCc3cc(F)c(C(F)(F)F)c(F)c3)C(=O)N2C1 [PP0699]
HRAS/KRAS (ratio of KD value with respect to GDP-bound HRAS wild-type protein to KD value with respect to KRAS) [1]: C (A compound having a KD ratio of 0.1 or more and less than 3 is denoted as C) | NRAS/KRAS (ratio of KD value with respect to GDP-bound NRAS wild-type protein to KD value with respect to KRAS) [2]: C (A compound having a KD ratio of 0.1 or more and less than 3 is denoted as C)

CCO[C@@H]1C[C@H]2C(=O)NC3(CCC3)C(=O)N(C)[C@@H](C3CCCC3)C(=O)N(C)[C@H](C(=O)N(C)C)CC(=O)N(C)[C@@H](CC3CCCC3)C(=O)N[C@@H]([C@@H](C)CC)C(=O)N(C)CC(=O)N(C)[C@H]3CCCCN(C3=O)[C@@H](Cc3ccc(C(F)(F)F)cc3)C(=O)N(C)CC(=O)N[C@@H](CCc3cc(F)c(C(F)(F)F)c(F)c3)C(=O)N2C1 [PP0700]
HRAS/KRAS (ratio of KD value with respect to GDP-bound HRAS wild-type protein to KD value with respect to KRAS) [1]: B (a compound having 3 or more and less than 10 is denoted as B) | NRAS/KRAS (ratio of KD value with respect to GDP-bound NRAS wild-type protein to KD value with respect to KRAS) [2]: C (A compound having a KD ratio of 0.1 or more and less than 3 is denoted as C)
